Results as given in ChEMBL document CHEMBL1201862, “PubChem BioAssay data set” (2004).
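Each compound was tested at five concentrations against cells in 96-well plates for 48 hours. GI50 is the concentration that inhibits growth by half.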 Calls of active or inactive are those of the source. Cut-off read from the data, not from the text of the source: active = GI50 up to about 1.1 µM and inactive = higher.

What was measured:
Experiment in all cases: growth of human tumour cells (NCI), 48 h
DU-145 = test system: DU-145
HL-60 = test system: HL-60
UO-31 = test system: UO-31
RXF 393 = test system: RXF 393
BT-549 = test system: BT-549
OVCAR-3 = test system: OVCAR-3
SK-OV-3 = test system: SK-OV-3
A498 = test system: A498
TK-10 = test system: TK-10
NCI-H460 = test system: NCI-H460
SK-MEL-2 = test system: SK-MEL-2
ACHN = test system: ACHN
SNB-75 = test system: SNB-75
NCI-H23 = test system: NCI-H23
K562 = test system: K562
HCT-15 = test system: HCT-15
NCI/ADR-RES = test system: NCI/ADR-RES
M14 = test system: M14
HCT-116 = test system: HCT-116
MDA-MB-435 = test system: MDA-MB-435
RPMI-8226 = test system: RPMI-8226
EKVX = test system: EKVX
OVCAR-4 = test system: OVCAR-4
SNB-19 = test system: SNB-19
NCI-H226 = test system: NCI-H226
HOP-92 = test system: HOP-92
HCC 2998 = test system: HCC 2998
SF-268 = test system: SF-268
MDA-N = test system: MDA-N
OVCAR-8 = test system: OVCAR-8
SW-620 = test system: SW-620
KM12 = test system: KM12
UACC-257 = test system: UACC-257
HT-29 = test system: HT-29
Malme-3M = test system: Malme-3M
CCRF-CEM = test system: CCRF-CEM
PC-3 = test system: PC-3
SK-MEL-5 = test system: SK-MEL-5
COLO 205 = test system: COLO 205
Hs-578T = test system: Hs-578T
MCF7 = test system: MCF7
786-0 = test system: 786-0
SK-MEL-28 = test system: SK-MEL-28
HOP-62 = test system: HOP-62
SF-295 = test system: SF-295
MDA-MB-231 = test system: MDA-MB-231
LOX IMVI = test system: LOX IMVI
UACC-62 = test system: UACC-62
OVCAR-5 = test system: OVCAR-5
SF-539 = test system: SF-539
A549 = test system: A549
CAKI-1 = test system: CAKI-1
SN12C = test system: SN12C
U-251 = test system: U-251
MOLT-4 = test system: MOLT-4
SR = test system: SR
NCI-H522 = test system: NCI-H522
IGROV-1 = test system: IGROV-1

For `CCc1nc2ccc(C(F)(F)F)cc2[nH]c1=O`, the GI50 (DU-145) was > 100 µM (inactive), the GI50 (HL-60) was > 100 µM (inactive) and the GI50 (UO-31) was 61.7 µM (inactive). The GI50 (RXF 393) was > 100 µM (inactive), the GI50 (BT-549) was > 100 µM (inactive) and the GI50 (OVCAR-3) was > 100 µM (inactive). The GI50 (SK-OV-3) was > 100 µM (inactive), the GI50 (A498) was 94.4 µM (inactive) and the GI50 (TK-10) was > 100 µM (inactive). The GI50 (NCI-H460) was > 100 µM (inactive), the GI50 (SK-MEL-2) was > 100 µM (inactive) and the GI50 (ACHN) was > 100 µM (inactive). For the same compound, the GI50 (SNB-75) was 89.5 µM (inactive), the GI50 (NCI-H23) was > 100 µM (inactive) and the GI50 (K562) was > 100 µM (inactive). For the same compound, the GI50 (HCT-15) was > 100 µM, the GI50 (NCI/ADR-RES) was > 100 µM (inactive) and the GI50 (M14) was > 100 µM (inactive). For the same compound, the GI50 (HCT-116) was > 100 µM (inactive), the GI50 (MDA-MB-435) was > 100 µM (inactive) and the GI50 (RPMI-8226) was > 100 µM (inactive). The GI50 (EKVX) was 44.5 µM (inactive), the GI50 (OVCAR-4) was 52.2 µM (inactive) and the GI50 (SNB-19) was > 100 µM (inactive). The GI50 (NCI-H226) was > 100 µM (inactive), the GI50 (HOP-92) was > 100 µM (inactive) and the GI50 (HCC 2998) was > 100 µM (inactive). The GI50 (SF-268) was > 100 µM (inactive), the GI50 (MDA-N) was > 100 µM (inactive) and the GI50 (OVCAR-8) was > 100 µM (inactive). For the same compound, the GI50 (SW-620) was > 100 µM (inactive), the GI50 (KM12) was > 100 µM (inactive) and the GI50 (UACC-257) was > 100 µM (inactive). The GI50 (HT-29) was > 100 µM (inactive), the GI50 (Malme-3M) was > 100 µM (inactive) and the GI50 (CCRF-CEM) was > 100 µM (inactive). The GI50 (PC-3) was > 100 µM (inactive), the GI50 (SK-MEL-5) was > 100 µM (inactive) and the GI50 (COLO 205) was > 100 µM (inactive). The GI50 (Hs-578T) was > 100 µM (inactive), the GI50 (MCF7) was > 100 µM (inactive) and the GI50 (786-0) was > 100 µM (inactive). For the same compound, the GI50 (SK-MEL-28) was > 100 µM (inactive), the GI50 (HOP-62) was > 100 µM (inactive) and the GI50 (SF-295) was > 100 µM (inactive). The GI50 (MDA-MB-231) was 50.6 µM (inactive), the GI50 (LOX IMVI) was > 100 µM (inactive) and the GI50 (UACC-62) was > 100 µM (inactive). The GI50 (OVCAR-5) was > 100 µM (inactive), the GI50 (SF-539) was > 100 µM (inactive) and the GI50 (A549) was > 100 µM (inactive). For the same compound, the GI50 (CAKI-1) was 80.7 µM (inactive), the GI50 (SN12C) was > 100 µM (inactive) and the GI50 (U-251) was > 100 µM (inactive). The GI50 (MOLT-4) was > 100 µM (inactive).
With `CN(C)CCNC(=O)c1ccc2nc3c(nc2c1)C(=O)c1ccccc1-3` the GI50 (DU-145) was > 100 µM (inactive), the GI50 (HL-60) was 19.1 µM (inactive) and the GI50 (UO-31) was 40.6 µM (inactive). The GI50 (RXF 393) was 85.5 µM (inactive), the GI50 (BT-549) was 21.7 µM (inactive) and the GI50 (OVCAR-3) was 55 µM (inactive). The GI50 (SK-OV-3) was > 100 µM (inactive), the GI50 (A498) was > 100 µM (inactive) and the GI50 (TK-10) was > 100 µM (inactive). The GI50 (NCI-H460) was 18.5 µM (inactive), the GI50 (ACHN) was 47.1 µM (inactive) and the GI50 (SNB-75) was 30.5 µM (inactive). For the same compound, the GI50 (NCI-H23) was 48.5 µM (inactive), the GI50 (HCT-15) was 31.4 µM and the GI50 (SR) was 18.1 µM (inactive). The GI50 (NCI-H522) was 30.9 µM (inactive), the GI50 (M14) was > 100 µM (inactive) and the GI50 (HCT-116) was 45.9 µM (inactive). For the same compound, the GI50 (MDA-MB-435) was 26 µM (inactive), the GI50 (RPMI-8226) was 26.1 µM (inactive) and the GI50 (EKVX) was > 100 µM (inactive). The GI50 (OVCAR-4) was 32.8 µM (inactive), the GI50 (SNB-19) was 77.3 µM (inactive) and the GI50 (HOP-92) was 57.4 µM (inactive). For the same compound, the GI50 (HCC 2998) was 86.9 µM (inactive), the GI50 (SF-268) was 33.5 µM (inactive) and the GI50 (MDA-N) was 18.2 µM (inactive). For the same compound, the GI50 (OVCAR-8) was 36.5 µM (inactive), the GI50 (SW-620) was 34.2 µM (inactive) and the GI50 (KM12) was 81.8 µM (inactive). For the same compound, the GI50 (UACC-257) was 76.6 µM (inactive), the GI50 (HT-29) was 26.4 µM (inactive) and the GI50 (Malme-3M) was 25.2 µM (inactive). The GI50 (IGROV-1) was 38.9 µM (inactive), the GI50 (CCRF-CEM) was 9.75 µM (inactive) and the GI50 (PC-3) was 45 µM (inactive). The GI50 (SK-MEL-5) was 17.9 µM (inactive), the GI50 (COLO 205) was 34.6 µM (inactive) and the GI50 (Hs-578T) was 52.2 µM (inactive). For the same compound, the GI50 (MCF7) was 27.9 µM (inactive), the GI50 (786-0) was 31.8 µM (inactive) and the GI50 (SK-MEL-28) was > 100 µM (inactive). The GI50 (HOP-62) was 29 µM (inactive), the GI50 (SF-295) was 65.6 µM (inactive) and the GI50 (LOX IMVI) was 29.9 µM (inactive). For the same compound, the GI50 (UACC-62) was 46.5 µM (inactive), the GI50 (OVCAR-5) was > 100 µM (inactive) and the GI50 (SF-539) was 60.8 µM (inactive). The GI50 (A549) was > 100 µM (inactive), the GI50 (CAKI-1) was > 100 µM (inactive) and the GI50 (SN12C) was 68.5 µM (inactive). The GI50 (U-251) was 24.2 µM (inactive) and the GI50 (MOLT-4) was 12.9 µM (inactive).
